The values that follow come from patent US11136615B2 (PROMEGA CORPORATION, priority 2017, dated 2021).

Type in all cases: physicochemical
Data set [1] can be described thus: Effect of ATT on luciferin stability (RP-HPLC). As to conditions: luciferins 1.0 mM, cationic detergent buffers pH 6.0, ATT 2.0 mM, 60° C., FIG. 3. As to the method: Representative luciferins were reconstituted (at final concentration of 1.0 mM) in buffers containing various cationic detergents at pH 6.0, with or without ATT (Sigma, at a final concentration of 2.0 mM). The mixture was incubated at 60° C. Aliquots (20 μL) were taken out at various time points, diluted with H2O (180 μL), and analyzed by RP-HPLC. The percentages of the components were calculated based on UV absorbance at 330 nm.

Data set [2] in a line: Effect of ATT on pro-luciferin stability (RP-HPLC). The note with it: 2-hydroxyethyl ester of luciferin methyl ether 1.0 mM, PBS pH 7.4, 5% DMSO, ATT 8.0 mM, 37° C., FIG. 4. Here is the method: A stock solution of this compound in DMSO was added to PBS buffer at pH 7.4 to reach a final concentration at 1.0 mM and 5% DMSO. The mixture was incubated at 37° C., with or without ATT (Sigma, at a final concentration of 8.0 mM). Aliquots (20 μL) were taken out at various time points, diluted with H2O (180 μL), and analyzed by RP-HPLC. The percentages of the components were calculated based on UV absorbance at 330 nm.

Data set [3] can be described thus: Effect of ATT on pro-luciferin stability with or without TCEP (RP-HPLC). The note with it: 2-hydroxyethyl ester of luciferin methyl ether 1.0 mM, PBS pH 7.4, 5% DMSO, ATT 8.0 mM, TCEP 10 mM, 37° C., FIG. 5. Here is the method:
ATT was also shown to be compatible with additives that are commonly used in bioluminescence systems. […] The mixture was incubated at 37° C., with or without ATT (Sigma, at a final concentration of 8.0 mM), and with or without TCEP (Thermo Scientific, at a final concentration of 10 mM).

The nature of data set [4]: Thermal stability (T80) of Ultra-Glo™-based ATP detection reagent. As to conditions: 37° C. As to the method:
(FIG. 6). T80 (the storage time during which the complete ATP detection reagent produced ≥80% of the light output from the freshly made reagent), a parameter reflecting reagent thermal stability, was improved by 1 fold at 37° C. after addition of ATT. In particular, the T80 value in the absence of ATT (0 mM) was 4 days, whereas the T80 value in the presence of ATT (3 mM) was 8 days (FIG. 6A). Further, the combination of dehydroluciferin and ATT as additives further improved the reagent stability, increasing the T80 value to 18 days (FIG. 6B, at 3 mM ATT with 0.3 mM corresponding dehydro-compound).

The structures appear in SMILES notation.

As to `Cc1n[nH]c(=S)[nH]c1=O` [ATT, 6-methyl-3-thioxo-3,4-dihydro-1,2,4-triazin-5(2H)-one], in data set [1], the dehydroluciferin formation result is reported as “reduced” and the luciferin thermal stability result was “improved”. Moreover, in data set [2], the “decomposition of the pro-luciferin compound” value is listed as “slowed down” and the “formation of the corresponding dehydroluciferin derivative” value was “reduced”. Further, in data set [3], the “stability of the pro-luciferin compound in the presence of TCEP” value is “improved”. Also, in data set [4] (ATT 3 mM in complete ATP detection reagent, 4 days in the absence of ATT, FIG. 6A), the “T80 (storage time with ≥80% of the light output of freshly made reagent)” value is 8 days. Besides, in data set [4] (complete ATP detection reagent), the “improvement of T80 after addition of ATT” value amounted to 1 fold.
